The values that follow come from patent US20220378786A1, “METHODS OF DEFINING FUNCTIONAL CHANGE AND SLOWING PROGRESSION IN CHRONIC LIVER DISEASE” (priority 2021, published 2022).

This assay relates to hepatic function and portal-systemic shunting in subjects with CLD. The assay can be described thus: HepQuant SHUNT test (DSI and SHUNT %) relative to concomitant drug therapy in the SHUNT-V clinical study. It counts as in vivo, human. The conditions noted are these: for Coefficient (Δ DSI score): multi-variable regression analysis of prescribed medications, Base DSI 27.0682; for ΔDSI: univariable regression analysis, 270 SHUNT-V subjects with CLD, on drug vs not on drug, lower DSI = better hepatic function. The source says: For example, a HepQuant® cholate liver function test (HepQuant, LLC) can be used to determine the presence and severity of liver diseases. A HepQuant® test can be a HepQuant® DSI test, HepQuant® SHUNT test or a HepQuant® STAT test. […] The term “SHUNT test” refers to a previously disclosed QLFT (quantitative liver function test) used as a comprehensive assessment of hepatic blood flow and liver function. The SHUNT test may be used to determine plasma clearance of orally and intravenously administered distinguishable cholic acids in subjects with and without chronic liver disease. SHUNT fraction or percent quantifies the spillover of the PO d4-cholate into the systemic circulation from the ratio of the clearance of the intravenously administered 13C-cholate to the clearance of the orally administered d4-cholate. In the SHUNT test, at least 5 blood samples are analyzed which have been drawn from a patient at intervals over a period of about 90 minutes after oral and intravenous administration of differentiable cholates. The SHUNT test is disclosed in Everson et al., U.S. Pat. […] The “SHUNT test value” refers to a number (in %). The term “SHUNT %” represents a quantitative measurement of portal-systemic shunting. SHUNT % is a measurement of the percentage of spillover of the orally administered d4-cholate. The first-pass hepatic elimination of cholate in percent of orally administered cholate is defined as (100%—SHUNT). Analysis of samples for stable isotopically labeled cholates is performed by, e.g., GC-MS, following sample derivitization, or LC-MS, without sample derivitization, or LC-MS/MS, or MS/MS. The ratio of the AUCs of orally to intravenously administered cholic acid, corrected for administered doses, defines cholate shunt. The cholate shunt can be calculated using the formula: AUCoral/AUCiv×Doseiv/Doseoral×100%, wherein AUCoral is the area under the curve of the serum concentrations of the orally adminstered cholic acid and AUCiv is the area under the curve of the intravenously administered cholic acid. The SHUNT test allows measurement of first-pass hepatic elimination of bile acids from the portal circulation. The term “DSI test” refers to a cholate Disease Severity Index test which is derived from one or more liver function test results based on hepatic blood flow. The DSI score is a function of the sum of cholate clearances from systemic and portal circulations adjusted to disease severity ranging from healthy subjects to end stage liver disease. DSI is a score without units representing a quantitative measurement of liver function. A disease severity index (DSI) value may be obtained in a patient by a method comprising (a) obtaining one or more liver function test values in a patient having or at risk of a chronic liver disease, wherein the one or more liver function test values are obtained from one or more liver function tests selected from the group consisting of SHUNT, portal hepatic filtration rate (portal HFR), and systemic hepatic filtration rate (systemic HFR); and (b) employing a disease severity index equation (DSI equation) to obtain a DSI value in the patient, wherein the DSI equation comprises one or more terms and a constant to obtain the DSI value, wherein at least one term of the DSI equation independently represents a liver function test value in the patient, or a mathematically transformed liver function test value in the patient from step; and the at least one term of the DSI equation is multiplied by a coefficient specific to the liver function test. DSI is an index, or score, that encompasses the cholate clearances from both systemic and portal circulations. DSI has a range from 0 (healthy) to 50 (severe end-stage disease) and is calculated from both HFRs. […] DSI test methods and equations are disclosed in U.S. Pat. Nos. 9,091,701, 9,759,731, 10,520,517, each of which is incorporated herein by reference in its entirety. Additional DSI equations have been developed and are provided herein.

Where [1] appears, read: ON-OFF drug, subset of 130 subjects taking anti-diabetic drug therapies (Table 6, FIG. 18).
The mark [2] stands for this setting: multi-variable regression with statins, metformin, diabetes diagnosis and NASH diagnosis.

With `CN(C)C(=N)N=C(N)N` [Metformin, metformin], the “Coefficient (Δ DSI score)” value is given as −2.2637 and the ΔDSI was −4.1777. For the same molecule, under setting [1], the “mean difference in DSI” value is −2.4 and the “mean difference in SHUNT” value is on record as −7.4%. Besides, under setting [2], the “Decline in DSI” value is −2.4337 and the “Decline in SHUNT %” value is recorded as −5.9%. Besides, the “Resultant DSI” value (multi-variable regression, Base DSI 27.0682 plus coefficients, cumulative down the table (metformin line includes the statin coefficient)) is listed as 21.55. Further, the “% Reduction in DSI” value (multi-variable regression, relative to Base DSI 27.0682, cumulative down the table (metformin line includes statins)) is listed as −20.4%.

For the molecule Vitamin E, the “Coefficient (Δ DSI score)” value is listed as −1.6505 and the ΔDSI is −2.0475.

In the case of “Insulin: insulin, anti-diabetic drug therapy”, the “Coefficient (Δ DSI score)” value is listed as −0.7947 and the ΔDSI was −2.746.

As for `CCc1ccc(CCOc2ccc(CC3SC(=O)NC3=O)cc2)nc1` (centres unmarked) [Pioglitazone], the “Coefficient (Δ DSI score)” value came to 0.2725 and the ΔDSI is reported as −2.4995.
